Peptide text beside a SMILES is read from it. * marks the point of attachment. Cbz = O=C(OCc1ccccc1)*
What was measured:
[1] = test system: cMYC-EGFP-DCD19; assay: Flow cytometry of EGFP signal, cMYC-EGFP-DCD19 in HMEC; type: cell-based, human; conditions: 10uM, 4h
Excerpt: (§1) To systematically delineate the optimal DCD/degrader combination for targeted protein degradation, we undertook a matrix approach evaluating all 23 DCD tags against 6 small molecule degraders. […] To control for any potential off-target effects of the IMiD/CeLMOD agents that could indirectly affect the target of interest, we designed controls in which the specific DCD and the EGFP sequences were interspaced by a P2A ribosomal “skipping” sequence,[32] leading to separate translation of the DCD and the target protein (Figure 1A). These constructs were then inserted into a doxycycline-inducible lentiviral vector system and stably expressed in hTERT immortalized human mammary epithelial cells (HMEC), a suitable model to assess the functional consequences of cMYC degradation. cMYC was tagged at the C-terminus end for the initial screening experiments.
(§2) Figure 1 Design and experimental evaluation of the DCD tags (A) Representation of the experimental pipeline used to evaluate the different DCD constructs. […] Median EGFP intensity was measured in each condition using flow cytometry (3 independent experiments, normalized to the control and represented as mean ± SD). […] The protein lysates were probed for cMYC levels using western blotting. […] Target loss was evaluated either by measuring EGFP median intensity using flow cytometry or western blotting for cMYC protein (3 independent experiments, normalized to the control and represented as mean ± SD). […] Target loss was evaluated as in (D) (3 independent experiments, normalized to the control and represented as mean ± SD). […] Protein lysates were collected and probed for cMYC and p21 using western blotting. […] Protein lysates were collected and probed for cMYC and p21 using western blotting. […] These were left out as controls with no test substance.
(§3) Following degrader treatment cells were collected and DAPI was added to the cell suspension at 1 μg/mL to allow the exclusion of dead cells. EGFP signal was measured using BD LSR II flow cytometer (BD Biosciences). FlowJo 10 Software (FlowJo) was used for data processing.

[2] = test system: CT26 cells; assay: Quantitative multiplexed proteomics of CT26 cells treated with thalidomide derivatives; type: cell-based, mouse; conditions: CT26, 10uM, 24h
Experimental: After showing that iTAG was active in mouse cells, we explored whether more potential degrons were active in the murine context. […]2216[50] and profiled the cellular proteomes using quantitative multiplexed proteomics. […] Data are plotted as Log2 fold change relative to DMSO versus Log10 of p value. (B) Proteome of CT26 CRBN KO cells treated with 10uM of FPFT2216 for 24h analyzed and plotted as in (A). (C) HEK293T, CT26, AT3 and 4434 cells treated with 10uM of FPFT2216 for 24h in presence of absence of MLN4924. […] were analyzed using western blotting. (D) Structural representation of PDE6D with the critical […] highlighted in red. (E) CT26, AT3 and 4434 cells transiently expressing WT or […] mutant Flag-PDE6D treated with 10uM of FPFT2216 for 16h. (F) Docking model for FPFT-2216 (in magenta) in the binding site of mouse CRBN (in orange). H-bond interactions are shown as cyan dashes. (G) Binding model for the ternary complex formed by mouse CRBN (in orange), mouse PDE6D (in cyan) and FPFT-2216 (in magenta), showing the […] loop close to the molecular glue. Samples for quantitative proteomics were prepared using the […] workflow.[60] Briefly, the cell pellets were lysed in a buffer containing 150 μL 0.1 M triethylammonium bicarbonate (TEAB), 1% sodium deoxycholate (SDC), 10% isopropanol, 50mM NaCl, 5 mM tris-2-carboxyethyl phosphine (TCEP), 10 mM iodoacetamide (IAA), universal nuclease, and supplemented with protease and phosphatase inhibitors. Samples were bath sonicated for 5 min, incubated at RT for 45 min and protein concentration was measured with the Bradford Protein Assay (Biorad) according to manufacturer instructions. Aliquots containing 30 μg of total protein were used for protein digestion. The resultant peptides were labeled with a tandem mass tag (TMTpro) multiplex reagent vial (Thermo Scientific) according to the manufacturer instructions. All the TMT-labelled samples were combined in equal amounts to a single tube. The TMT-peptide mixture was acidified with 1% formic acid and the precipitated SDC was removed by centrifugation. The sample was then dried with a centrifugal vacuum concentrator. LC-MS analysis was performed on the Dionex Ultimate 3000 UHPLC system coupled with the Orbitrap Lumos mass spectrometer (Thermo Scientific). Samples were analyzed with the EASY-Spray C18 capillary column (75 μm × 50 cm, 2 μm) at 50°C. […] MS3 quantification was obtained with higher-energy collisional dissociation (HCD) fragmentation of the top 5 most abundant CID fragments isolated with synchronous precursor selection (SPS). […] The SEQUEST-HT search engine was used to analyze the acquired mass spectra in Proteome Discoverer 2.4 (Thermo Scientific) for protein identification and quantification. […]

[3] = test system: cMYC-EGFP-DCD23; assay: Degradation of cMYC-EGFP-DCD23 in HMEC (flow cytometry, western blotting); type: cell-based, human; conditions: co-treatment with CC220 (10μM), 4h, western blotting
Excerpt: as §1, §2, §3
(§4) Cells were lysed with SDS lysis buffer (2% SDS, 10% Glycerol, 50mM Tris pH 6.8) and boiled at 95°C for 30min. Protein concentration was measured using Pierce BCA Protein Assay Kit (ThermoFischer) following manufacturer’s recommendations. Samples were ran in NuPAGETM 10% Bis-Tris Midi electrophoresis gels (Invitrogen) using NuPAGETM MES SDS running buffer (ThermoFischer Scientific).
(§5) For western blotting membranes were blocked in a solution of 5% (w/v) bovine serum albumin (BSA; Sigma-Aldrich) dissolved in TBS-0.1% Tween 20 (Sigma-Aldrich) then incubated at 4°C overnight with the primary antibodies diluted in 5% (w/v) BSA/TBS-T. The membranes where then washed and incubated with anti-mouse and/or anti-rabbit secondary antibodies (LI-COR Biosciences) for 2h at RT diluted in 5% (w/v) BSA/TBS-T then washed and imaged using the LI-COR Odyssey (LI-COR Biosciences). Images were analyzed using Image Studio Lite software (LI-COR Biosciences).

[4] = test system: N-terminally tagged cMYC, RBM39, BRD4 (Flag-HA-DCD23 or Flag-HA-FKBP12^[F36V]); assay: Western blotting, iTAG versus dTAG fused proteins in SUM159; type: cell-based, human
Experimental: The fusion constructs were stably expressed in SUM159 cells and loss of protein was determined by western blotting.
(§6) The protein lysates were probed for HA using western blotting. […] The protein lysates were probed for HA using western blotting. […] Median EGFP intensity was measured in each condition using flow cytometry. (3 independent experiments, represented as mean ± SD).
The dTAG system has also been adapted to direct targets to the E3 CRL2^VHL using the PROTAC dTAG^V-1^16. […] We evaluated the degradation N-terminally tagged cMYC and RBM39 dTAG^V-1, we included BRD4 as a control as it was reported to be a well degraded target in the initial dTAG optimization (Figure 3C).[15]
(§7) For the pHAGE-PGK constructs: DCD23, SuperDegron and FKBP12^F36V were separately cloned into a pHAGE-PGK DEST backbone. cDNA encoding the indicated protein was then cloned from pENTR221 into the pHAGE-PGK-DCD23, pHAGE-PGK-SuperDegron or pHAGE-PGK-FKBPF36V DEST vector using Gateway cloning. SUM159 cells were transduced with the indicated lentivirus and selected with puromycin.
as §4, with “Scientific). Proteins were subsequently transferred to an Immobilon-P polyvinylidene Difluoride (PVDF) membrane (Merck Millipore) using the wet-transfer method (Bio-Rad) in a transfer buffer consisting of 20% (v/v) methanol and 10% protein electrophoresis buffer (24.77 mM Tris and 0.192 M glycine).” for “Scientific).”
as §5

[5] = test system: N-terminally tagged EGFP; assay: Flow cytometry of N-terminally tagged EGFP in SUM159 (iTAG, SD, dTAG); type: cell-based, human; conditions: SUM159, 4h, normalized values; dTAG-13 for FKBP12 F36V, CC220 for SD and iTAG
Experimental: as §6
As we were finalizing our study on iTAG, a similar IMiD based degron was publish by the Ebert group.[28] The SuperDegron (SD) a 60 amino acid tag based on a chimera of Aiolos/ZFP91 was used to generate degradable chimeric antigen receptors (CAR).[28]
as §7

## Cc1nc2cccc(N)c2c(=O)n1C1CCC(=O)NC1=O (stereo not drawn) [CC122, Avadomide]
[1]
  loss of cMYC-EGFP signal: robust loss of cMYC-EGFP signal

## O=C1CCC(N2Cc3cc(CNC(=O)C(F)(F)c4ccc(Cl)cc4)ccc3C2=O)C(=O)N1 (stereo not drawn) [CC90009]
[2]
  effect on cellular proteome: no impact

## CC(C)C[C@@H](C=O)NC(=O)[C@H](CC(C)C)NC(=O)[C@H](CC(C)C)NC(=O)OCc1ccccc1 [MG132] (Cbz-Leu-Leu-Leu-aldehyde)
[3]
  effect on CC220-induced cMYC degradation: inhibited cMYC degradation

## NS(=O)(=O)OC[C@@H]1C[C@@H](n2ccc3c(N[C@H]4CCc5ccccc54)ncnc32)C[C@@H]1O [MLN4924]
[3]
  effect on CC220-induced cMYC degradation: inhibited cMYC degradation

## Nc1cccc2c1C(=O)N(C1CCC(=O)NC1=O)C2=O (stereo not drawn) [Pomalidomide]
[1]
  loss of cMYC-EGFP signal: robust loss of cMYC-EGFP signal

## O=C1CCC(N2C(=O)c3ccc(NS(=O)(=O)c4ccccc4OC(F)(F)F)cc3C2=O)C(=O)N1 (stereo not drawn) [StJude6989]
[2]
  effect on cellular proteome: no impact

## O=C1CCC(N2C(=O)c3ccccc3C2=O)C(=O)N1 (stereo not drawn) [Thalidomide]
[1]
  loss of cMYC-EGFP signal: robust loss of cMYC-EGFP signal

## CC[C@H](C(=O)N1CCCC[C@H]1C(=O)O[C@H](CCc1ccc(OC)c(OC)c1)c1ccccc1OCC(=O)NCCCCCCOc1cccc2c1C(=O)N(C1CCC(=O)NC1=O)C2=O)c1cc(OC)c(OC)c(OC)c1 (stereo partly drawn) [dTAG-13]
[4]; SUM159, dTAG-13 on dTAG, CC220 on iTAG
  concentrations at which targets are degraded: less pronounced or even not observed at high concentrations
[4]; SUM159, dTAG-13 on dTAG, CC220 on iTAG, 1, 2 or 4h
  time of onset of degradation of cMYC and RBM39: moderate degradation only after 4h

## CC[C@H](C(=O)N1CCCC[C@H]1C(=O)O[C@H](CCc1ccc(OC)c(OC)c1)c1ccccc1OCC(=O)NCCCCCCC(=O)N[C@H](C(=O)N1C[C@H](O)C[C@H]1C(=O)N[C@@H](C)c1ccc(-c2scnc2C)cc1)C(C)(C)C)c1cc(OC)c(OC)c(OC)c1 [dTAG^V-1]
[4]; SUM159, BRD4, cMYC, RBM39, 4h
  degradation compared between dTAG variants: more robust degradation compared to dTAG-13

## FKBP12^[F36V]: mutant FKBP12 protein tag of the dTAG system, degraded with dTAG-13
[5]
  DC50: 0.38 nM
  DCmax: 95%

— paper PMC10285648, “iTAG an optimized IMiD-induced degron for targeted protein degradation in human and murine cells” (iScience, 2023)
